According to patent US12410164B2, “Heterocyclic compounds and medical use thereof” (FONDAZIONE TELETHON, priority 2018, dated 2025):

target: F508del-CFTR (Homo sapiens, UniProt P13569, DEL508-508); test: HS-YFP kinetic fluorescence (iodide quenching rate) assay in CFBE41o− cells; type: cell-based; parameters: expressed in transfected cells; host or cells: CFBE41o- cells with expression of F508del-CFTR and HS-YFP (generated as in Sondo et al. 2011); conditions: Table 1; compound at 10 μM plus VX-809; (QRTOT − QRVX)/QRVX, HS-YFP assay
Sequence (P13569 with tags, fused parts or gaps DEL508-508): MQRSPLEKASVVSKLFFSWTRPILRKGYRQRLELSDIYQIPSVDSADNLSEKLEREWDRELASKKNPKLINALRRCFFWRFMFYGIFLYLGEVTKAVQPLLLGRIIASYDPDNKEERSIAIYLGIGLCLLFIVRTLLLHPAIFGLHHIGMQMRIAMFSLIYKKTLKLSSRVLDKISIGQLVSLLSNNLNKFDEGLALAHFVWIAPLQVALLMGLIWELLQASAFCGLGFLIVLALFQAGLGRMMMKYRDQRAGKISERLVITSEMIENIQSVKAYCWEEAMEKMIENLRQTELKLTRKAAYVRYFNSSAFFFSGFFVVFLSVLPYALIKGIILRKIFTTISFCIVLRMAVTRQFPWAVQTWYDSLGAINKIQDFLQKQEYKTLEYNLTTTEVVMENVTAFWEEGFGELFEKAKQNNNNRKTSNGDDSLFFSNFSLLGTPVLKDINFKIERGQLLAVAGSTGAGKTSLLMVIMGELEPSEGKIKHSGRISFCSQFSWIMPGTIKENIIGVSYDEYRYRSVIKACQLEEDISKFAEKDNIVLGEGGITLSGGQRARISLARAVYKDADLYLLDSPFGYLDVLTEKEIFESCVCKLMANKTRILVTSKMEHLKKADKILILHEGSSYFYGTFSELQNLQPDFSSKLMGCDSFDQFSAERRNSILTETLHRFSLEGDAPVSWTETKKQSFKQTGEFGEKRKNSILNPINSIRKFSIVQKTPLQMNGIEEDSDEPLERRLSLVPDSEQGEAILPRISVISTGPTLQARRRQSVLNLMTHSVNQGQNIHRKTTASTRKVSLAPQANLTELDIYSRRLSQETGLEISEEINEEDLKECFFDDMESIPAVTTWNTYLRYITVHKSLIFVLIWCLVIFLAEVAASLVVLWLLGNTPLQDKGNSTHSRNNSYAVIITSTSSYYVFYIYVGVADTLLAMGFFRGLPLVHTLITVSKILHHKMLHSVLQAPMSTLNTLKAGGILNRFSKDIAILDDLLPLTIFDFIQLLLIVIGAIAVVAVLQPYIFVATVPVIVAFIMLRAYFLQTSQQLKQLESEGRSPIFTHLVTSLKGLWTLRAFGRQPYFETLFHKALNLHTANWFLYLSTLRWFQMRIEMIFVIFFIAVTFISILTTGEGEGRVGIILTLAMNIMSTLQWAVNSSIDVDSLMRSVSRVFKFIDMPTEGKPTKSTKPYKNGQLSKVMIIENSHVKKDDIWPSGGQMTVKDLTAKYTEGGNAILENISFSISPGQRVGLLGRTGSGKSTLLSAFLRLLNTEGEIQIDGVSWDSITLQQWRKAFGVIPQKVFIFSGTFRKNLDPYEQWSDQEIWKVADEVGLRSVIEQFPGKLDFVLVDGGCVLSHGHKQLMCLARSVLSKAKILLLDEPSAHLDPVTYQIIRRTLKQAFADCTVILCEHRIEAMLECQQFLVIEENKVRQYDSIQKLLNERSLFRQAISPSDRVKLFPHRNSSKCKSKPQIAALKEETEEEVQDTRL
How it was run: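 CFBE41o- cells co-expressing F508del-CFTR and HS-YFP, treated 24 h with compound (0.1-0.2% DMSO), then stimulated with 20 μM forskolin plus 50 μM genistein. Fluorescence was read for 14 s during NaI injection. Background-subtracted, normalized traces were fitted exponentially to give maximum quenching rate (QR).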

Compound | AI (%) additivity index [%]
Cc1cccc(Cn2c(C(=O)NC(C)C)cc3c2-c2[nH]c(=O)c(S(=O)(=O)c4ccccc4)cc2CC3)c1 [PP083, 7-(Benzenesulfonyl)-1-[(3-methylphenyl)methyl]-8-oxo-N-(propan-2-yl)-4,5,8,9-tetrahydro-1H-pyrrolo[3,2-h]quinoline-2-carboxamide] | 53
Cc1cccc(Cn2c(C(=O)NS(=O)(=O)c3ccccc3)c(Br)c3c2-c2[nH]c(=O)c(S(=O)(=O)c4ccccc4)cc2CC3)c1 [PP100, N,7-di(benzenesulfonyl)-3-bromo-1-[(3-methylphenyl)methyl]-8-oxo-4,5,8,9-tetrahydro-1H-pyrrolo[3,2-h]quinoline-2-carboxamide] | 47
CCOC(=O)c1c(Br)c2c(n1Cc1ccc(C)nc1)-c1[nH]c(=O)c(S(=O)(=O)c3ccccc3)cc1CC2 [PP067, Ethyl 7-(benzenesulfonyl)-3-bromo-1-[(6-methylpyridin-3-yl)methyl]-8-oxo-4,5,8,9-tetrahydro-1H-pyrrolo[3,2-h]quinoline-2-carboxylate] | 81
CC(C)OC(=O)c1cc2c(n1Cc1ccc(F)cc1)-c1[nH]c(=O)c(S(=O)(=O)c3ccccc3)cc1CC2 [PP107, Propan-2-yl 7-(benzenesulfonyl)-1-[(4-fluorophenyl)methyl]-8-oxo-4,5,8,9-tetrahydro-1H-pyrrolo[3,2-h]quinoline-2-carboxylate] | 335
CCOC(=O)c1c(Br)c2c(n1Cc1ccc(C)c(C)c1)-c1[nH]c(=O)c(S(=O)(=O)c3ccccc3)cc1CC2 [PP037, Ethyl 7-(benzenesulfonyl)-3-bromo-1-[(3,4-dimethylphenyl)methyl]-8-oxo-4,5,8,9-tetrahydro-1H-pyrrolo[3,2-h]quinoline-2-carboxylate] | 335
CCOC(=O)c1cc2c(n1Cc1ccc(C)cc1)-c1[nH]c(=O)c(S(C)(=O)=O)cc1CC2 [PP024, Ethyl 7-(metansulfonyl)-1-[(4-methylphenyl)methyl]-8-oxo-4,5,8,9-tetrahydro-1H-pyrrolo[3,2-h]quinoline-2-carboxylate] | 11
CCOC(=O)c1cc2c(n1Cc1ccccc1)-c1[nH]c(=O)c(S(=O)(=O)c3ccccc3)cc1CC2 [PP011] | 150
CCOC(=O)c1c(Cl)c2c(n1Cc1ccc(C)cc1)-c1[nH]c(=O)c(S(=O)(=O)c3ccccc3)cc1CC2 [PP076, Ethyl 7-(benzenesulfonyl)-3-chloro-1-[(4-methylphenyl)methyl]-8-oxo-4,5,8,9-tetrahydro-1H-pyrrolo[3,2-h]quinoline-2-carboxylate] | 244
CCOC(=O)c1c(Br)c2c(n1Cc1ccc(C)cc1)-c1[nH]c(=O)c(S(=O)(=O)c3ccc(C)cc3)cc1CC2 [PP035, Ethyl 3-bromo-7-(4-methylbenzene-1-sulfonyl)-1-[(4-methylphenyl)methyl]-8-oxo-4,5,8,9-tetrahydro-1H-pyrrolo[3,2-h]quinoline-2-carboxylate] | 56
CC(C)NC(=O)c1c(Br)c2c(n1Cc1ccc(Br)cc1)-c1[nH]c(=O)c(S(=O)(=O)c3ccccc3)cc1CC2 [PP097, 7-(Benzenesulfonyl)-3-bromo-1-[(4-bromophenyl)methyl]-8-oxo-N-(propan-2-yl)-4,5,8,9-tetrahydro-1H-pyrrolo[3,2-h]quinoline-2-carboxamide] | 99

same assay, conditions: Table 3; compound at 10 μM plus VX-809; (QRTOT-QRVX)/QRVX

Compound | AI additivity index [%]
CCOC(=O)c1cc2c(n1Cc1ccc(Br)cc1)-c1nc(NS(=O)(=O)c3ccccc3)ncc1CC2 [SVQ15, Ethyl 2-[(benzenesulfonyl)amino]-9-[(4-bromophenyl)methyl]-6,9-dihydro-5H-pyrrolo[3,2-h]quinazoline-8-carboxylate] | 100
CCOC(=O)c1c(Br)c2c(n1Cc1cccc(C)c1)-c1nc(NS(=O)(=O)c3ccccc3)ncc1CC2 [SVQ12, Ethyl 2-[(benzenesulfonyl)amino]-7-bromo-9-[(3-methylphenyl)methyl]-6,9-dihydro-5H-pyrrolo[3,2-h]quinazoline-8-carboxylate] | 152

same assay, conditions: relative to the analogue

Compound | structure-activity comparison of corrector potency/activity
CCOC(=O)c1c(Br)c2c(n1Cc1ccc(C)c(C)c1)-c1[nH]c(=O)c(S(=O)(=O)c3ccccc3)cc1CC2 [PP037, Ethyl 7-(benzenesulfonyl)-3-bromo-1-[(3,4-dimethylphenyl)methyl]-8-oxo-4,5,8,9-tetrahydro-1H-pyrrolo[3,2-h]quinoline-2-carboxylate] | increase in potency compared to PP008
CCOC(=O)c1cc2c(n1Cc1ccccc1)-c1[nH]c(=O)c(S(=O)(=O)c3ccccc3)cc1CC2 [PP011] | causes a reduction in activity
